Test results reported in patent US20130281544A1, “HEPATOPROTECTANT ACTIVITY OF GARCINOL” (priority 2010, published 2013).
≈ marks a conversion by molar mass, not a printed value. Marks after values point to notes of the source that are not given here.

Key:
[1] = test system: Hep G2 liver cancer cell line; assay: in vitro; assay type: cell-based
in vitro = assay type: cell-based; conditions: human
[2] = test system: alcohol (Ethyl alcohol) induced hepatotoxic animal models; assay: Serum ALT, AST, ALP and bilirubin in alcohol (ethyl alcohol) induced hepatotoxic animal models; assay type: in vivo, Male Wistar Rats; conditions: EtOH; for ALP percent change / ALT percent change / AST percent change / Bilirubin percent change / ALP / ALT / AST / Bilirubin: serum; for ALP / ALT / AST / Bilirubin: Mean ± SE
Protocol: Doses of Garcinol (GC) used for the study: 1.25, 2.5, 5, 10 mg/kg p.o.
Standard drug: Silymarin (50 mg/kg) p.o.
Male Wistar rats, weighing 180-200 g, were given 0.5-0.6 ml ethanol orally. […] All rats had regular standard rat chow available throughout the 6-week period. Rats were weighted three times per week. [Guangjin Yuan, Zuojiong Gong *, Xiaorong Zhou, Pin Zhang, Xiaomei Sun and Xi Li. Epigallocatechin-3-Gallate Ameliorates Alcohol-Induced Liver Injury in Rats. Int. J. Mol. Sci. 2006, 7, 204-219]. Blood was collected from the retro-orbital plexus of experimental animals and no anti-coagulant was added. Blood was made to stand at room temperature for 1 hour. It was then centrifuged and clear serum was separated. The serum was then stored for analysis. Reference: (Magari et al., 2004).
(ASPARTATE AMINOTRANSFERASE and ALANINA AMINOTRANSFERASE), Reference: Ritman S, Frankel S, (1957). A colorimetric method for the determination of serum glutamic oxaloacetic and glutamic pyruvic transaminases. American Journal of Clinical Pathology; 28: 56-63.
0.2 ml of serum, collected from test and control samples, was mixed with 1.0 ml of buffer solution and incubated for 60 min at 37° C. in a water bath. After the addition of 1.0 ml of chromogen solution, the samples were kept at room temperature for 20 minutes for the reaction to proceed and 10 ml NaOH was added. The optical density was red at 546 nm after 5 min. To the blank, serum was added after the addition of chromogen solution.
(ALKALINE PHOSPHATASE), Reference: Klaus Walter and Schutt C. (1974). Acid and alkaline phosphatase in serum. In: Methods of Enzymatic Analysis. Eds. Hans Ulrich Bergmeyer, Verlag ChemieWeinheim, Academic press, Inc. New York, 2nd Edition, Vol. 2, pp. 855-64.
Alkaline phosphatase activity measurement is based on the ability of the enzyme to hydrolyze p-nitrophenol phosphate under alkaline conditions. The cleaved product p-nitrophenol is yellow in alkaline solution and is measured at 400-420 nm (Klaus and Schutt, 1974). 2.0 ml of buffered substrate was taken in the tubes ‘Test’ ‘Control’ and ‘Blank’ followed by addition of serum and distilled water (0.1 ml) in ‘Test’ and ‘Blank’ respectively and incubated in a water bath for 30 minutes at 25° C. After incubation sodium hydroxide was added (0.25 N, 2 ml) to all the tubes, which was followed by serum (0.1 ml) to the tubes marked ‘Control’. The yellow colour formed was measured spectrophotometrically against blank at 410 nm.
[BILIRUBIN (BRBN)], Reference: Malloy H T and Evelyn K A (1937). The determination of bilirubin with photoelectric colorimeter. Journal of Biological Chemistry 119: 481-490.
Serum bilirubin was estimated by the method of Malloy and Evelyn (1937). In the two sets of test tubes marked ‘Test’ and ‘Control’, serum (0.2 ml) and distilled water (1.8 ml) were added. To the tubes marked ‘Test’ and ‘Standard’ diazo reagent (0.5 ml) was added. To the test tubes marked ‘Control’ and ‘Blank’ diazo blank (0.5 ml) was added. Finally methanol (2.5 ml) was added into each test tube. The tubes were mixed and allowed to stand for 30 minutes in dark. The tubes were read after 10 minutes at 540 nm.

mice = conditions: mouse, in vivo, po
Text: The parameters studied and observations recorded are included in Table 1. (OECD Guidelines for Testing of Chemicals. Guideline 423, Acute Oral Toxicity—Acute Toxic Class Method, Adopted, (1996). Organization for Economic Cooperation and Development).

C=C(C)[C@@H](CC=C(C)C)C[C@@]12C[C@@H](CC=C(C)C)C(C)(C)[C@@](CC=C(C)C)(C(=O)C(C(=O)c3ccc(O)c(O)c3)=C1O)C2=O [Garcinol]
effective concentration for mammalian hepatocyte protection [1]: 0.78 to 6.25 µg/mL
IC50 ([1]; Homo sapiens, HepG2, HEP G2 cells, MTT, read-out: Hepatoprotective activity in HEP G2 cells IC50): 13.3 µg/mL (≈ 22.1 µM)
cytotoxicity at 0.78 μg/ml (in vitro): -3.81%
cytotoxicity at 1.56 μg/ml (in vitro): -12.1%
cytotoxicity at 3.13 μg/ml (in vitro): -14.7%
cytotoxicity at 6.25 μg/ml (in vitro): -1.94%
cytotoxicity at 12.5 μg/ml (in vitro): 35.8%
cytotoxicity at 25 μg/ml (in vitro): 60.9%
cytotoxicity at 50 μg/ml (in vitro): 83.2%
cytotoxicity at 100 μg/ml (in vitro): 83.4%
cytotoxicity at 200 μg/ml (in vitro): 79.5%
Average Protection ([2]; 1.25 mg/kg p.o.): 17.32%
Average Protection ([2]; 2.50 mg/kg p.o.): 29.82%
Average Protection ([2]; 5.00 mg/kg p.o.): 39.39%
Average Protection ([2]; 10.00 mg/kg p.o.): 40.20%
ALP percent change ([2]; 1.25 mg/kg p.o.): (14.91) %
ALT percent change ([2]; 1.25 mg/kg p.o.): (27.45) %
AST percent change ([2]; 1.25 mg/kg p.o.): (20.20) %
Bilirubin percent change ([2]; 1.25 mg/kg p.o.): (6.73) %
ALP ([2]; 1.25 mg/kg p.o.): 88.68 ± 8.58 μmol min/lt
ALT ([2]; 1.25 mg/kg p.o.): 1320.40 ± 52.20* μmol min/lt
AST ([2]; 1.25 mg/kg p.o.): 858.80 ± 32.64 μmol min/lt
Bilirubin ([2]; 1.25 mg/kg p.o.): 1.94 ± 0.02 mg %
ALP percent change ([2]; 2.50 mg/kg p.o.): (26.96) %
ALT percent change ([2]; 2.50 mg/kg p.o.): (40.63) %
AST percent change ([2]; 2.50 mg/kg p.o.): (32.47) %
Bilirubin percent change ([2]; 2.50 mg/kg p.o.): (19.23) %
ALP ([2]; 2.50 mg/kg p.o.): 76.12 ± 4.88* μmol min/lt
ALT ([2]; 2.50 mg/kg p.o.): 1080.50 ± 48.56** μmol min/lt
AST ([2]; 2.50 mg/kg p.o.): 726.78 ± 46.50* μmol min/lt
Bilirubin ([2]; 2.50 mg/kg p.o.): 1.68 ± 0.04* mg %
ALP percent change ([2]; 5.00 mg/kg p.o.): (34.44) %
ALT percent change ([2]; 5.00 mg/kg p.o.): (51.83) %
AST percent change ([2]; 5.00 mg/kg p.o.): (39.58) %
Bilirubin percent change ([2]; 5.00 mg/kg p.o.): (31.73) %
ALP ([2]; 5.00 mg/kg p.o.): 68.32 ± 5.60** μmol min/lt
ALT ([2]; 5.00 mg/kg p.o.): 876.58 ± 76.80** μmol min/lt
AST ([2]; 5.00 mg/kg p.o.): 650.26 ± 56.20** μmol min/lt
Bilirubin ([2]; 5.00 mg/kg p.o.): 1.42 ± 0.06** mg %
ALP percent change ([2]; 10.00 mg/kg p.o.): (33.79) %
ALT percent change ([2]; 10.00 mg/kg p.o.): (52.15) %
AST percent change ([2]; 10.00 mg/kg p.o.): (41.23) %
Bilirubin percent change ([2]; 10.00 mg/kg p.o.): (33.65) %
ALP ([2]; 10.00 mg/kg p.o.): 69.00 ± 4.82** μmol min/lt
ALT ([2]; 10.00 mg/kg p.o.): 870.80 ± 48.40** μmol min/lt
AST ([2]; 10.00 mg/kg p.o.): 632.48 ± 44.56** μmol min/lt
Bilirubin ([2]; 10.00 mg/kg p.o.): 1.39 ± 0.04** mg %
Aggressiveness (mice): Aggressiveness: Nil
Atexia (mice): Atexia: Nil
Blanching (mice): Blanching: Nil
Clonic convulsions (mice): Clonic convulsions: Nil
Corneal (mice): Corneal: No Effect
Cyanosis (mice): Cyanosis: Nil
Diarrhea (mice): Diarrhea: Nil
Excitation (mice): Excitation: Nil
Fearful (mice): Fearful: Nil
Fecal Output (mice): Fecal Output: Normal
General Locomotor Activity (mice): General Locomotor Activity: Normal
General Movement (mice): General Movement: Normal
Hyperemia (mice): Hyperemia: Nil
Motor Activity (mice): Motor Activity: Normal
Muscular Weakness (mice): Muscular Weakness: Nil
Passive (mice): Passive: Nil
Pilo erection (mice): Pilo erection: Nil
Pinnal (mice): Pinnal: No Effect
Respiration Depth (mice): Respiration Depth: Normal
Respiration Rate (mice): Respiration Rate: Normal
Respiration rate (mice): Respiration rate: Normal
Salivation (mice): Salivation: Normal
Tremors (mice): Tremors: Nil
Urine Output (mice): Urine Output: Normal
